Experimental data reported in patent US20060239990A1, “Protein Arginine N-Methyltransferase 2 (PRMT-2)” (priority 2003, published 2006).

What was measured:
IκBα = assay: Confocal quantification of nuclear IκBα in PRMT2−/− fibroblasts; assay type: cell-based, mouse; conditions: after TNF-α 30 min, 30 minutes LMB
Experimental: Immunohistochemistry and confocal microscopy. PRMT2^−/− fibroblasts were transfected with a HA-tagged PRMT2 expression vector. 36 hrs after transfection the cells were treated with TNF-α for 30 min. The media was then removed and cells were incubated for an additional 30 minutes in the presence or absence of LMB. Cells were fixed, permeabilized with CytoFix-CytoPerm (BD Biosciences) for 20 minutes, and washed with Perm/Wash buffer (BD Biosciences). IκBα (Rabbit Polyclonal antibody, 1:1000; Santa Cruz Biotechnology) and HA (Rat Monoclonal antibody, 1:500; Roche) were diluted in Perm/Wash buffer and incubated for 1 hr. After two washes cells were stained with anti rabbit Alexa 488 and anti rat Alexa […] (1:1000, Invitrogen) for 30 min. Cells were washed and mounted with Ultracruz mounting media (Santa Cruz) containing DAPI. Confocal microscopy was performed using a Leica confocal microscope.

Stat3 = assay: Leptin-stimulated Stat3 tyrosine phosphorylation in VSMC nuclear extracts; assay type: cell-based, mouse; conditions: o-vanadate 200 μM pretreatment 15 min
Experimental: Cytoplasmic/nuclear extracts were prepared by Dounce homogenizing cells in Cytoplasmic lysis buffer (20 mM HEPES, pH7.9, 10 mM KCl, 1 mM MgCl2, 1% NP-40, 10% glycerol, 100 mM NaF, 1 mM Na3VO4, 1× protease inhibitors cocktail), and sedimenting nuclei by centrifugation at 1,000 rpm for 5 min. The supernatants were removed as samples of cytoplasmic fraction. The nuclei were extracted with nuclear lysis buffer (20 mM HEPES, pH7.9, 300 mM NaCl, 10 mM KCl, 1 mM MgCl2, 1% […], 10% glycerol, […], 1 mM Na3VO4, 1× protease inhibitors cocktail), and then subjected to the immunoblotting.
Immunoblotting was performed by boiling samples for 5 min at 95° C. followed by centrifugation for 1 min at 4° C. Aliquots of the supernatant were subjected to 7.5, 10% or 4-15% SDS-PAGE. Proteins in the gel were transferred to a nitrocellulose membrane by electroblotting. The membranes were treated with either anti-pTyr, anti-STAT3, anti-phospho STAT3, anti-α-metR, anti-IRS-1, anti-Flag, anti-phospho IRS-1, anti-arginine (mono- and di-methyl), or anti-β-actin antibodies followed by incubation with secondary antibodies conjugated with HRP. Immunoreactive proteins were detected either by ECL or by ECL plus system (Amersham Pharmacia Biotech). In some cases, bands were quantified using the NIH Image software (Image J version 1.2; National Institutes of Health, Bethesda, Md.). […]

HIV-1 LTR = assay: HIV-1 reporter transcription, transient co-transfection; assay type: cell-based, human; conditions: 293T cells, expression plasmid co-transfected with HIV-1 reporter plasmid
Experimental: Cell culture, transfection, and reporter gene assays. The E1A-transformed, human kidney cell line, 293, and NIH-3T3 cells were maintained in Dulbecco's Modified Eagle Medium (DMEM) supplemented with 10% fetal calf serum and penicillin-streptomycin at 37° C. in 5% carbon dioxide in tissue culture grade Petri dishes. PRMT-2−/− mouse embryo fibroblasts (MEFs) and wild type MEFs were prepared from day 13.5 embryos and maintained in DMEM supplemented with 10% fetal calf serum. MEFs at passage 4 were used in this experiment. Lipofectamine Plus™ reagent (Boehringer Mannheim) was used to transfect both 293 and NIH-3T3 cells according to directions from the manufacturer. […] TNF-α stimulation of cells was done using recombinant TNF-α (200 U/ml) for 12 hours. Transfected cells were harvested at 36 hours, and CAT activity was assayed on 10 to 100 μg of protein from whole cell extracts. CAT assays were performed essentially as described in Leung, K. & Nabel, G. J. Nature 333, 776-778 (1988). To analyze the κB-reporter activity in MEFs, cells were transfected with the reporter (2×kB-Luc) and PRL-TK vector (Promega) using FuGENE6 transfection reagent (Roche). Luciferase activity was analyzed by Dual-Luciferase Reporter Assay System (Promega). […]

RB = molecular target: T1, RB (Homo sapiens, UniProt P06400); assay: In vitro binding assay with GST-RB; conditions: S35-labeled in vitro translated protein
T1 construct: coding region of RB cDNA was subcloned into pGEX-6P (Amersham/Pharmacia) for generation of GST-RB; made in house
T1 sequence (P06400 1-928): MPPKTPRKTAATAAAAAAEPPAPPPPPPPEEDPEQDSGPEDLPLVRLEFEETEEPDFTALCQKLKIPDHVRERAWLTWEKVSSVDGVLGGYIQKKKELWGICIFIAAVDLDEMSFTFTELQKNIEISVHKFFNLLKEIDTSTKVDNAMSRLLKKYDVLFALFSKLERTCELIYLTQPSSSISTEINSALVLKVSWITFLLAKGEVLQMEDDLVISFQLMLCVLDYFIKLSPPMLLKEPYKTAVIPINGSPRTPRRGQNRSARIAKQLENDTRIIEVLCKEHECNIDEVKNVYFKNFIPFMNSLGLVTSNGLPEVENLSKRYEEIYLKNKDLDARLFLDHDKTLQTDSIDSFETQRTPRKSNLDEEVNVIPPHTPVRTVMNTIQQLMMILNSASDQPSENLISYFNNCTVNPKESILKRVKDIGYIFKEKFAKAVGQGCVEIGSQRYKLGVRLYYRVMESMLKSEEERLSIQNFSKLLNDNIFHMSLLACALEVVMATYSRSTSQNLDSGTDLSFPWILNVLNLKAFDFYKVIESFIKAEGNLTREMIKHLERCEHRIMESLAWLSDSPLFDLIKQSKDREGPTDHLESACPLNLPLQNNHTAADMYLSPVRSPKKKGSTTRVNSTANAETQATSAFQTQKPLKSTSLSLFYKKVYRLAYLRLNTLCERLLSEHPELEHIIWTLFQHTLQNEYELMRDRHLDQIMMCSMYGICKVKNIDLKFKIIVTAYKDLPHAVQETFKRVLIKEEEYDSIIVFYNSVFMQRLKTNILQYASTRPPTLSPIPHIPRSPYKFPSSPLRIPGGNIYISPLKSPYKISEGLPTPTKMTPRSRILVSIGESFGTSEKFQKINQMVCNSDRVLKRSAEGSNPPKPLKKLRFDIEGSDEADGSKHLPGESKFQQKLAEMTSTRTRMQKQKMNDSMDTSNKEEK
Experimental: The crude cell lysate of the GST-fusion proteins was prepared and purified according to the manufacture's protocol (Amersham/Pharmacia). [^35S]-methionine-labeled protein was produced by in vitro transcription/translation using the TNT T7-coupled reticulocyte lysate system (Promega). [^35S]-methionine-labeled protein and GST-fusion protein bound to glutathione sepharose 4B beads were incubated in 500 μl of HNE buffer (50 mM Hepes, pH 7.8, 150 mM NaCl, 1 mM EDTA, 1 mM DTT, 1% NP40, and 1× protease inhibitor mix (Complete: Roche)) at 4° C. for 1 hour. Beads were washed four times with HNE buffer, and then analyzed on an SDS-PAGE gradient gel (4-15%). For the detection of endogenous PRMT-2 interaction with RB, MEFs were lysed with WCL buffer (50 mM Hepes, pH 7.8, 400 mM NaCl, 2 mM EDTA, 1 mM DTT, 0.2% NP40, 10% Glycerol, 20 mM α-glycerophosphate, 5 mM NaF, 0.1 mM NaVO4, and 1× protease inhibitor mix). Then, 1 mg of whole cell extracts were incubated with HNE buffer without DTT and 3 μg of antibodies as indicated. The immune complexes were isolated using protein G beads, and washed four times with HNE buffer. The precipitated protein was boiled with SDS-loading buffer and resolved on SDS-PAGE. […]

## CCC(=C/[C@H](C)C/C=C/C(C)=C/[C@@H](C)C(=O)[C@@H](C)[C@H](O)[C@@H](C)C/C(C)=C/C(=O)O)/C=C/[C@@H]1OC(=O)C=C[C@@H]1C [LMB, leptomycin B]
IκBα
  nuclear IκBα: promoted nuclear accumulation of IκBα

## [O]=[V]([O-])([O-])[O-] [o-vanadate]
Stat3; PRMT2−/− VSMC nuclear extracts
  leptin-stimulated tyrosine phosphorylation of Stat3: no enhancement of tyrosine phosphorylation of Stat3
Stat3; wild-type VSMC nuclear extracts
  leptin-stimulated tyrosine phosphorylation of Stat3: further enhanced leptin-stimulated tyrosine phosphorylation of Stat3

## PRMT1: human protein arginine methyltransferase 1, expression construct [reference compound]
HIV-1 LTR
  stimulation of HIV-1 transcription: about 10 fold
RB
  binding to RB: do not bind RB
